Experimental data published in patent publication US9403756B2, “N-phenyl anthranilic acid derivatives and uses thereof” (Ramot at Tel-Aviv University Ltd., priority 2007, dated 2016).
pEC50: −log10 of the molar value. Entries after “also recorded” stand apart in the source; their conditions may differ. Like-named read-outs stand apart in the source and are kept apart here.

How the values were obtained:
[1] = biological target: T1, Kv7.2/3 channels (Homo sapiens, UniProt O43525+O43526); assay: Kv7.2/3 channels coexpressed in CHO cells, whole-cell patch-clamp; type: cell-based; settings: for Activity: M-channel modulation, Kv7.2 and Kv7.3 subunits coexpressed in CHO cells; for pEC50: read-out: EC50; for ΔV50 (mV): left-shift of the activation curve of Kv7.2/3 channels
T1 construct: expressed in transfected cells; host or cells: CHO cells
Experimental: Chinese hamster ovary (CHO) cells were grown in Dulbecco's modified Eagle's medium (DMEM) supplemented with 2 mM glutamine, 10% fetal calf serum and antibiotics. Briefly, 40,000 cells seeded on poly-D-lysine-coated glass coverslips (13 mm diameter) in a 24-multiwell plate were transfected with pIRES-CD8 (0.5 μg) as a marker for transfection, and with Kv7.2 (0.5 μg) and Kv7.3 (0.5 μg) or TRPV1 […] or TRPV6 […].
For electrophysiology, transfected cells were visualized approximately 40 hours following transfection, using anti-CD8 antibody-coated beads. Transfection was performed using Fugene 6 (Roche, Indianapolis Ind., USA) according to the manufacturer's protocol.
Voltage-clamp recordings in CHO cells were performed, using the whole-cell configuration of the patch-clamp technique. Signals were amplified using an Axopatch 200B patch-clamp amplifier (Molecular Devices, Sunnyvale, Calif.), sampled at 2 kHz and filtered at 800 Hz via a 4-pole Bessel low pass filter. […] The patch pipettes were pulled from borosilicate glass (Warner Instrument Corp, USA) with a resistance of 2-5 MΩ. For K^+ current recordings in CHO cells, the intracellular pipette solution contained (in mM): 130 KCl, 1 MgCl2, 5 K2ATP, 5 EGTA, 10 HEPES, adjusted with KOH to pH 7.4 (290 mOsm). The extracellular solution contained (in mM): 140 NaCl, 4 KCl, 1.8 CaCl2, 1.2 MgCl2, 11 glucose, 5.5 HEPES, adjusted with NaOH to pH 7.4 (310 mOsm).
Data analysis was performed using the Clampfit program (pClamp 9.2, Molecular Devices), Microsoft Excel (Microsoft) and Prism 4.0 (GraphPad). Chord conductance (G) was calculated by using the following equation: G=I/(V−Vrev) where I corresponds to the current amplitude measured at the end of the pulse and Vrev, the calculated reversal potential. G was estimated at various test voltages V and then, normalized to a maximal conductance value, Gmax. Activation curves were fitted by one Boltzmann distribution: G/Gmax=1/{1+exp[(V50−V)/s]} where V50 is the voltage at which the current is half-activated and s is the slope factor. All data were expressed as mean±SEM. Statistically significant differences were assessed by Student's t-test. Analysis of sEPSCs and sIPSCs was done using the Clampfit program (pClamp 9.2, Molecular Devices) and included evaluation of the individual events as well as the average event amplitude and the integral of the event (total charge transfer).
In these studies, the impact of the compounds on M-channel activity was measured by the heterologous coexpression of Kv7.2 and Kv7.3 subunits in CHO cells.

[2] = system: COX; assay: Anti-COX activity in cell culture, CT26 and D122 cell lines (results in words); type: cell-based, mouse; settings: COX-dependent synthesis of PGE2
Experimental: Mouse colon adenocarcinoma CT26 and mouse lewis lung carcinoma D122 cells were grown in DMEM (D122) or RPMI (CT26) supplemented with 10% fetal calf serum, 4% glutamine, 1% penicillin-streptomycin-nystatin and 3% non essential amino acids (D122) and were kept in a humidified 37° C. incubator with 5% CO2. For the COX activity assays, cells were grown onto 24 multi-well plates.
Before the assay, cells were washed with serum-free medium; then the tested compounds were added to the medium and incubated for 30 minutes at 37° C. after which 30 μM arachidonic acid were added and incubated for additional 20 minutes. At the end of the incubation period, 10 μM Indomethacin were added to stop the reaction and medium was transferred to another 24 multi-well plate for measuring PGE2 production by radioimmunoassay (DuPont-NEN; Boston Mass.) according to manufacturer protocol. Protein determination was assayed on scraped cells using the Bradford method (1976) [Bradford M. M. 1976. Anal. Biochem. 72:248-254], with BSA as a standard and was used to normalize the amount of PGE2 production.
The anti-COX activity of NH25, NH29 and NH30 was examined in Mouse colon adenocarcinoma CT26 and mouse lewis lung carcinoma D122 cell lines. Cells were incubated with each of the tested compounds and the level of the COX-dependent synthesis of PGE2 was quantified using radioimmunoassay techniques.

[3] = system: maximal electroshock seizure model (MES) in ICR mice; assay: Maximal electroshock seizure test (MES); type: in vivo; settings: 30 minutes before electroshock, data not shown
Experimental: The anti-convulsant effect was measured by the maximal electroshock seizure model (MES) in ICR mice as previously described. The procedures followed for experimentation and maintenance of the animals were approved by the animal research ethics committee of Tel Aviv University and in accordance with the Guide for the Care and Use of Laboratory Animals (1996, National Academy of Sciences, Washington D.C.). Briefly, maximal electroshock was induced in adult mice by means of two transcorneal electrodes delivering an alternative current of 50 mA at 60 Hz for 0.2 sec using rodent shocker (Hugo Sachs Electronik, type 221). […] The compounds, dissolved in 0.9% saline, were administered intraperitoneally 30 minutes before the electroshock was performed. Animals failing to show tonic hind limb extension were scored as protected and were expressed in percentage.

[4] = biological target: T2, KCNQ2 mutant R207W (Homo sapiens, UniProt O43526, R207W); type: cell-based
T2 construct: expressed in transfected cells; host or cells: CHO cells
Excerpt: FIGS. 10A-D present the potentiating effect of NH29, an exemplary channel opener compound according to embodiments of the present invention, on wild type KCNQ2 (FIGS. 10A and 10B) and R207W mutant (FIGS. 10C and 10D) channels, as expressed in activation curve measurements, showing that NH29 left-shifts the activation curve (ΔV50) by −15.5 mV and −5.5 mV in the case of the wild-type and the mutant, respectively, and showing that NH29 enhances the current of wild-type and the mutant by about 3.4-fold (at −40 mV) and 1.5-fold (at −20 mV), respectively.
FIGS. 11A-F present the potentiating effect of NH29, an exemplary channel opener compound according to embodiments of the present invention, and Retigabine, on KCNQ2 mutants R207W and W236L mutant. Shown are representative traces recorded from CHO cell transfected with the KCNQ2 mutant R207W 0, 1 and 4-4.5 minutes after external application of 25 μM of NH29 and wherein the membrane potential was stepped from −90 mV holding potential to −20 mV for 1.5 seconds pulse duration (FIG. 11A), or 0, 1 and 4 minutes after external application of 25 μM of Retigabine wherein the membrane potential was stepped from −90 mV holding potential to −40 mV for 1.5 seconds pulse duration (FIG. 11B). FIGS. 11C and 11D show representative traces recorded from CHO cells transfected with the KCNQ2 mutant W236L 0, 1 and 6 minutes after external application of 25 μM of NH29 (FIG. 11C) or 0 and 5 minutes after external application of 10 μM of Retigabine (FIG. 11D) and wherein the membrane potential was stepped from −90 mV holding potential to −40 mV for 1.5 seconds pulse duration. FIG. 11E presents superimposed traces, showing the effects of Retigabine (RTG) and NH29 on the channel activity of KCNQ2 mutant W236L as measured at −40 mV; and FIG. 11F presents a bar diagram comparing the potentiating effect of NH29 and Retigabine on native KCNQ2 and KCNQ2 mutants, wherein the opener effect is expressed as percent of the control current in the absence of the opener.
Voltage-clamp recordings in CHO cells were performed, using the whole-cell configuration of the patch-clamp technique. Signals were amplified using an Axopatch 200B patch-clamp amplifier (Molecular Devices, Sunnyvale, Calif.), sampled at 2 kHz and filtered at 800 Hz via a 4-pole Bessel low pass filter. Data were acquired using pClamp 9.2 software (Molecular Devices) and an IBM compatible Pentium IV computer in conjunction with a DigiData 1322A interface (Molecular Devices). The patch pipettes were pulled from borosilicate glass (Warner Instrument Corp, USA) with a resistance of 2-5 MΩ. For K^+ current recordings in CHO cells, the intracellular pipette solution contained (in mM): 130 KCl, 1 MgCl2, 5 K2ATP, 5 EGTA, 10 HEPES, adjusted with KOH to pH 7.4 (290 mOsm). The extracellular solution contained (in mM): 140 NaCl, 4 KCl, 1.8 CaCl2, 1.2 MgCl2, 11 glucose, 5.5 HEPES, adjusted with NaOH to pH 7.4 (310 mOsm). Series resistances (3-13 MΩ) were compensated (75-90%) and periodically monitored.

[5] = opener potency, concentration-dependent left-shift in half-activation potential ΔV50, sigmoidal fit
[6] = compounds whose Activity is Blocker

T2 sequence (O43526 whole entry R207W): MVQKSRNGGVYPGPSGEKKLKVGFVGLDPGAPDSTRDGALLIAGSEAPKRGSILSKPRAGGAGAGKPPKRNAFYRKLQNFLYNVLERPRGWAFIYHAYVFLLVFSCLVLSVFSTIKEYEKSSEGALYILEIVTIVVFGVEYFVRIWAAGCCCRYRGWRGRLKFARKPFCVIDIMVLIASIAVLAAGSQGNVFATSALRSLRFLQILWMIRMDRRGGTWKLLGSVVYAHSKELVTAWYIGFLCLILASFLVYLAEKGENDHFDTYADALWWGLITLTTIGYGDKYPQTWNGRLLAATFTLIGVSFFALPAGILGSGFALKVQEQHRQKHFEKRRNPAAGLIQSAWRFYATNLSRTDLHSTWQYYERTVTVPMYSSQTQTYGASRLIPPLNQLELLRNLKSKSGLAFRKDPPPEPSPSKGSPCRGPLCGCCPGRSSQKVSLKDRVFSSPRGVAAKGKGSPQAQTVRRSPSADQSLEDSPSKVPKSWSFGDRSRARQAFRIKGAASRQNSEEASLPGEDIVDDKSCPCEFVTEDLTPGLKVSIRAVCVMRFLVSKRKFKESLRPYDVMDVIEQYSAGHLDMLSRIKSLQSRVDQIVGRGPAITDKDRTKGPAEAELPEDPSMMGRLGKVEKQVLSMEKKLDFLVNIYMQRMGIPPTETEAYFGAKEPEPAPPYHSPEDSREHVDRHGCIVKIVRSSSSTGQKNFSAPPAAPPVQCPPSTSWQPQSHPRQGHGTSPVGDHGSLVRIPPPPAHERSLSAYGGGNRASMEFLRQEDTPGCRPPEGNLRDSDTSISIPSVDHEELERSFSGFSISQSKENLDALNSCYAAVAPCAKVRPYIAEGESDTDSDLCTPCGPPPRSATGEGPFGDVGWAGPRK

Molecule | Activity [1] | also measured
O=C(O)Cc1ccccc1Nc1c(Cl)cccc1Cl [Diclofenac, reference compound] | Opener | pEC50 [1, 5]: 5.59
Cc1ccc(Cl)c(Nc2ccccc2C(=O)O)c1Cl [Meclofenamic, Meclofenamic acid, reference compound] | Opener | ΔV50 (mV) [1]: −22.7 mV; pEC50 [1, 5]: 4.60
CN(CCO)C(=O)Cc1ccccc1Nc1c(Cl)cccc1Cl [NH5] | Opener | 
O=C(Cc1ccccc1Nc1c(Cl)cccc1Cl)OCCOCCO [NH6] | Opener | ΔV50 (mV) [1]: −18.7 mV; pEC50 [1, 5]: 4.74
O=C(Cc1ccccc1Nc1c(Cl)cccc1Cl)OCCO [NH7] | Opener | ΔV50 (mV) [1]: −4.1 mV
COCCOCCOCCOCCOC(=O)Cc1ccccc1Nc1c(Cl)cccc1Cl [NH8] | totally inactive | 
CC(C)COC(=O)Cc1ccccc1Nc1c(Cl)cccc1Cl [NH9] | potent M-channel blockers; also recorded: Blocker | pEC50 [1, 6]: 4.30
Cc1c(Cl)cccc1Nc1ccccc1C(=O)OCC(C)C [NH10] | totally inactive | 
CC(C)COC(=O)c1ccccc1Nc1cccc(C(F)(F)F)c1 [NH11] | totally inactive | 
COCCOCCOC(=O)Cc1ccccc1Nc1c(Cl)cccc1Cl [NH13] | totally inactive | 
O=C(Cc1ccccc1Nc1c(Cl)cccc1Cl)NCCOCCO [NH14] | Opener | ΔV50 (mV) [1]: −12.6 mV
Cc1cccc(Nc2ccccc2C(=O)NCCOCCO)c1C [NH15] | Opener | ΔV50 (mV) [1]: −8.4 mV; pEC50 [1, 5]: 5.52
O=C(NCCOCCO)c1ccccc1Nc1cccc(C(F)(F)F)c1 [NH16] | Opener | ΔV50 (mV) [1]: −5.5 mV; pEC50 [1, 5]: 5.05
Cc1c(Cl)cccc1Nc1ccccc1C(=O)NCCOCCO [NH18] | Opener | ΔV50 (mV) [1]: −3.7 mV; pEC50 [1, 5]: 5.22
O=C(Cc1ccccc1Nc1c(Cl)cccc1Cl)OCC1CO1 (stereo not shown) [NH21] | potent M-channel blockers; also recorded: Blocker | pEC50 [1, 6]: 4.00
O=C(O)Cc1cc([N+](=O)[O-])ccc1Nc1c(Cl)cccc1Cl [NH24] | Opener | 
O=C(Cc1ccccc1Nc1c(Cl)cccc1Cl)NCCO [NH27] | Opener | 
O=C(Cc1cc([N+](=O)[O-])ccc1Nc1c(Cl)cc([N+](=O)[O-])cc1Cl)NCCO [NH28] | Opener | 
O=C(Cc1cc([N+](=O)[O-])ccc1Nc1c(Cl)cccc1Cl)NCCO [NH30] | Opener | ΔV50 (mV) [1]: −12.2 mV; pEC50 [1, 5]: 4.77; anti-COX activity [2]: did not exhibit anti-COX activity
CC(C(=O)O)c1cccc(Oc2ccccc2)c1 (stereo not shown) [fenoprofen, reference compound] | do not activate Kv7.2/3 channels | 
O=C(O)c1ccccc1Nc1cccc(C(F)(F)F)c1 [flufenamate, reference compound] | potent M-channel openers | 
CC(C(=O)O)c1ccc(-c2ccccc2)c(F)c1 (stereo not shown) [flurbiprofen, reference compound] | do not activate Kv7.2/3 channels | 
Cc1cccc(Nc2ccccc2C(=O)O)c1C [mefenamate, reference compound] | potent M-channel openers | 
COc1ccc2cc([C@H](C)C(=O)O)ccc2c1 [naproxen, reference compound] | do not activate Kv7.2/3 channels | 
O=C1NC(=O)C(c2ccccc2)(c2ccccc2)N1 [phenyloin] |  | protection in MES ([3]; 20 mg/kg intraperitoneal): fully prevented hind limb extension
CCCC(CCC)C(=O)[O-].[Na+] [sodium valproate] |  | protection in MES ([3]; 500 mg/kg intraperitoneal): fully prevented hind limb extension
Cc1c(Cl)cccc1Nc1ccccc1C(=O)O [tolfenamate, reference compound] | potent M-channel openers | 
Zinc pyrithione [reference compound] |  | activation of S4 mutant R207W [4]: activate very potently
